Type in all cases: functional, cell-based
What all share (details): Homo sapiens

Assay [1] relates to HCT-15. Kind of assay: Cellular uptake of compound into HCT15 tumor cells by laser scanning cytometry at a concentration of 1 uM.
Assay [2] has as its system HCT-15. Briefly: Cellular uptake of compound into HCT15 tumor cells by laser scanning cytometry at a concentration of 0.1 uM.
Assay [3] deals with DU-145. Briefly: Cellular uptake of compound into DU145 tumor cells by laser scanning cytometry at a concentration of 1 uM.
For assay [4], the system named is DU-145. Kind of assay: Cellular uptake of compound into DU145 tumor cells by laser scanning cytometry at a concentration of 10 uM.
In assay [5] the test system is HCT-15. Briefly: Cellular uptake of compound into HCT15 tumor cells by laser scanning cytometry at a concentration of 10 uM.
For assay [6], the system named is DU-145. Kind of assay: Cellular uptake of compound into DU145 tumor cells by laser scanning cytometry at a concentration of 0.1 uM.

Consider five compounds from ChEMBL document CHEMBL1136266, “beta-Homolysine oligomers: a new class of Trojan carriers” (Bioorg Med Chem Lett, 2003).

In the case of `NCCCCC(CC(N)=O)NC(=O)CC(CCCCN)NC(=O)CC(CCCCN)NC(=O)CC(CCCCN)NC(=O)CC(CCCCN)NC(=O)CC(CCCCN)NC(=O)CC(CCCCN)NC(=O)CC(CCCCN)NC(=O)COCCOCCNC(=O)c1ccccc1C1c2ccc(O)cc2Oc2cc(O)ccc21` (stereo not given), the Uptake with HCT-15 [1] was 99.9%; in the assay on HCT-15 [2], 99.5%; with DU-145 [3], 98.9%; in the assay on DU-145 [4], 89.5%; in the assay with HCT-15 [5] it was 99.9%; in the assay with DU-145 [6] it was 98.5%.

With `NCCCCC(CC(N)=O)NC(=O)CC(CCCCN)NC(=O)CC(CCCCN)NC(=O)CC(CCCCN)NC(=O)CC(CCCCN)NC(=O)CC(CCCCN)NC(=O)CC(CCCCN)NC(=O)COCCOCCNC(=O)c1ccccc1C1c2ccc(O)cc2Oc2cc(O)ccc21` (stereo not given), the Uptake with HCT-15 [1] stood at 99.8%; in the assay on HCT-15 [2], 99.9%; in the assay with DU-145 [3], 85.8%; in the assay on DU-145 [4], 98.8%; with HCT-15 [5], 99.8%; with DU-145 [6], 92.5%.

For `NCCCCC(CC(N)=O)NC(=O)CC(CCCCN)NC(=O)CC(CCCCN)NC(=O)CC(CCCCN)NC(=O)CC(CCCCN)NC(=O)COCCOCCNC(=O)c1ccccc1C1c2ccc(O)cc2Oc2cc(O)ccc21` (stereo not given), the Uptake with HCT-15 [1] was 99.6%; in the assay on HCT-15 [2], 99.8%; with DU-145 [3], 76.5%; with DU-145 [4] it was 97.8%; in the assay with HCT-15 [5] it was 99.8%; in the assay with DU-145 [6], 71.9%.

Regarding `NCCCCC(CC(N)=O)NC(=O)CC(CCCCN)NC(=O)CC(CCCCN)NC(=O)CC(CCCCN)NC(=O)CC(CCCCN)NC(=O)CC(CCCCN)NC(=O)COCCOCCNC(=O)c1ccccc1C1c2ccc(O)cc2Oc2cc(O)ccc21` (stereo not given), the Uptake in the assay with HCT-15 [1] turned out to be 99.7%; in the assay with HCT-15 [2], 99.9%; in the assay with DU-145 [3], 69.5%; with DU-145 [4] it was 94.9%; in the assay with HCT-15 [5], 99.6%; in the assay on DU-145 [6], 40.4%.

Regarding `O=C1OC2(c3ccc(O)cc3Oc3cc(O)ccc32)c2ccccc21`, the Uptake with HCT-15 [1] stood at 1.1%; in the assay with HCT-15 [2], 0.3%; with DU-145 [3], 0.8%; with DU-145 [4], 0.3%; with HCT-15 [5], 0.7%; in the assay on DU-145 [6], 0.1%.
